This is an account of results in US7763617B2, “Pyrazolopyridine-4-yl pyridazinone derivatives and addition salts thereof, and PDE inhibitors comprising the same derivatives or salts as active ingredient” (Kyorin Pharmaceutical Co., Ltd., priority 2005, dated 2010).

SMILES strings stand for the structures. Read-outs that look alike come from different tables or passages of the source.

The target of experiment [1] is T1, PDE3A catalytic domain (PDE3Acat) (Homo sapiens, UniProt Q14432).
T1 construct: cDNA fragments of PDE3A catalytic domain (indicated as “cat,” hereinafter); made in house; host or cells: Sf9 insect cells (baculovirus, Bac-to-Bac)
Description: Inhibition of phosphodiesterase activity, [3H]-cAMP hydrolysis, recombinant PDE3Acat. In kind it is biochemical. As to conditions: cAMP 2 μmol/L. Here is the method:
(§1) RT-PCR was performed to isolate cDNA fragments of PDE3A catalytic domain (indicated as “cat,” hereinafter), PDE4Bcat, PDE5Acat and PDE10A1 from human RNA. Using Gateway system (Invitrogen) and Bac-to-Bac (registered trademark) Baculovirus Expression system (Invitrogen), the isolated cDNA fragments were transfected into Sf9 insect cells for expression of the PDE proteins. The recombinant PDE3Acat, PDE4Bcat, PDE5Acat and PDE10A1 proteins were isolated from culture supernatant or cell extracts of Sf9 cells expressed high levels of these proteins by ion-exchange chromatography and used for the following experiments.
(§2) 4 mmol/L solution of each test compound was serially diluted 4-fold with 15% DMSO solution to prepare the solutions with concentrations of 15 nmol/L to 4 mmol/L (final concentrations=1.5 nmol/L-400 μmol/L). 10 μL of each test compound solution was added to each well of 96 plate with 10 μL of [^3H]-cAMP or [^3H]-cGMP solution, diluted with a buffer (40 mmol/L Tris-HCl (pH 7.4), 10 mmol/L MgCl2) to the concentration shown in Table 20 and 40 μL of each of the human recombinant PDE proteins in units shown in Table 20. The plate was incubated at 30° C. for 20 min, and then at 65° C. for 2 min. Subsequently, 25 μL of 1 mg/mL 5′-nucleotidase (Crotalus atrox venom, Sigma) was added to each well and the plate was incubated at 30° C. for 10 min. 200 μL of Dowex solution (300 mg/mL Dowex 1×8-400 (Sigma Aldrich), 33% ethanol) was then added to each well and the plate was shaken at 4° C. for 20 min. Subsequently, 200 μL of MicroScint 20 (Packard) was added to each well and the radioactivity of each sample was measured by a scintillation counter (Topcount, Packard) IC50 was calculated by GraphPad Prism v3.03 (GraphPad Software).

In the next experiment the target is T2, PDE4Bcat (Homo sapiens, UniProt Q07343).
T2 construct: catalytic domain (indicated as “cat,” hereinafter), PDE4Bcat; made in house; host or cells: Sf9 insect cells (baculovirus, Bac-to-Bac)
Description: Inhibition of phosphodiesterase activity, [3H]-cAMP hydrolysis, recombinant PDE4Bcat. In kind it is biochemical. As to conditions: cAMP 2 μmol/L, read-out: IC50(μmol/L) PDE4. As to the method: as §1, §2

In a further experiment the target is PDE5Acat (Homo sapiens, UniProt O76074). In words: Inhibition of phosphodiesterase activity, [3H]-cGMP hydrolysis, recombinant PDE5Acat. Type of experiment: biochemical. The conditions noted are these: cGMP 2 μmol/L, read-out: IC50(μmol/L) PDE5. As to the method:
as §1, §2

The target of a further experiment is T3, PDE10A1 (Homo sapiens, UniProt Q9Y233).
T3 construct: made in house; host or cells: Sf9 insect cells (baculovirus, Bac-to-Bac)
Description: Inhibition of phosphodiesterase activity, [3H]-cAMP hydrolysis, recombinant PDE10A1. In kind it is biochemical. As to conditions: human recombinant PDE10A1, cAMP 0.2 μmol/L; read-out: IC50(μmol/L) PDE10. Here is the method:
as §1, §2

In experiment [2] the test system is histamine-induced bronchoconstriction. In words: Histamine-induced bronchoconstriction in guinea pigs. In kind it is in vivo, guinea pig. The conditions noted are these: Cavia porcellus, iv, 0.5 min, 30 seconds after administration, histamine 12.5 μg/kg i.v.; for inhibition in vivo at 1 mg/kg: test compound 1 mg/kg i.v.; for inhibition in vivo at 0.1 mg/kg: values in brackets: test compound 0.1 mg/kg, i.v. As to the method: Guinea pigs were anesthetized with pentobarbital (30 mg/kg, i.p.). A cannula for IV administeration, a cannula for collecting blood and measurement of blood pressure and a trachea cannula were inserted into the left exterior jugular vein, right interior carotid artery and trachea, respectively. The animals were placed under artificial respiration at 60 times/min and 10 mL/kg/stroke. The airflow through the branch of the tracheal cannula was measured by a bronchospasm transducer (Ugo-Basile) and recorded on a computer via Power Lab (ADInstruments Japan). The animals were immobilized with gallamine (10 mg/kg, i.v.), then administered histamine at 10-minute intervals (12.5 μg/kg, i.v.). […] To examine the inhibitory activity of test compound, the histamine-induced bronchoconstriction was measured after 30 seconds of drug administration. The bronchoconstriction was recorded as the change of the airflow: The results were shown by percentages of the maximum histamine-induced bronchoconstriction. Each test compound was prepared as a 10 mg/mL solution in DMSO. Gallamine was prepared as a 10 mg/mL solution in physiological saline. Histamine was prepared as a 1 mg/mL solution in physiological saline, which was diluted with physiological saline to 62.5 μg/mL for use.

Setting [3] is: human recombinant PDE3Acat, read-out: IC50(μmol/L) PDE3.

T1 sequence (Q14432 674-1093 limits assumed): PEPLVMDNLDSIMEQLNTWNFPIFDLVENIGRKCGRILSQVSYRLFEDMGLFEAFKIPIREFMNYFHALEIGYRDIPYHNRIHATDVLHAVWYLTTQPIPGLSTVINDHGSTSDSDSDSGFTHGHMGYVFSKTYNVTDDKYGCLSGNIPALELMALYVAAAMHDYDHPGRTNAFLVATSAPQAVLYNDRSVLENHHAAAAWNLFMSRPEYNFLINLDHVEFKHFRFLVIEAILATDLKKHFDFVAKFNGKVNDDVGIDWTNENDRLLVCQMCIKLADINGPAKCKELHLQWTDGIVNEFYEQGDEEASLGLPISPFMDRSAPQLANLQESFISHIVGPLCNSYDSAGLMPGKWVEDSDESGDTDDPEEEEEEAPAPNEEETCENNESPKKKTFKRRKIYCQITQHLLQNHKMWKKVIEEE
T2 sequence (Q07343 330-659 limits assumed): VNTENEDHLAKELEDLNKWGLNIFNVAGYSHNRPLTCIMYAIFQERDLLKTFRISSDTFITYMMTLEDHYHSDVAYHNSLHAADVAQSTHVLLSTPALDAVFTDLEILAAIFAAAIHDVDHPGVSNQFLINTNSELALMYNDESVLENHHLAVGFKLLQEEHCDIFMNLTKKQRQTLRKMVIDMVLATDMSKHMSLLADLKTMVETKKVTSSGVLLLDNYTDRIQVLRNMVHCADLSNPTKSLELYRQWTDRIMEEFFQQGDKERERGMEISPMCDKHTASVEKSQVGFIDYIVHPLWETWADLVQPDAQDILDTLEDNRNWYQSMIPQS
T3 sequence (Q9Y233 1-779 isoform Q9Y233-1): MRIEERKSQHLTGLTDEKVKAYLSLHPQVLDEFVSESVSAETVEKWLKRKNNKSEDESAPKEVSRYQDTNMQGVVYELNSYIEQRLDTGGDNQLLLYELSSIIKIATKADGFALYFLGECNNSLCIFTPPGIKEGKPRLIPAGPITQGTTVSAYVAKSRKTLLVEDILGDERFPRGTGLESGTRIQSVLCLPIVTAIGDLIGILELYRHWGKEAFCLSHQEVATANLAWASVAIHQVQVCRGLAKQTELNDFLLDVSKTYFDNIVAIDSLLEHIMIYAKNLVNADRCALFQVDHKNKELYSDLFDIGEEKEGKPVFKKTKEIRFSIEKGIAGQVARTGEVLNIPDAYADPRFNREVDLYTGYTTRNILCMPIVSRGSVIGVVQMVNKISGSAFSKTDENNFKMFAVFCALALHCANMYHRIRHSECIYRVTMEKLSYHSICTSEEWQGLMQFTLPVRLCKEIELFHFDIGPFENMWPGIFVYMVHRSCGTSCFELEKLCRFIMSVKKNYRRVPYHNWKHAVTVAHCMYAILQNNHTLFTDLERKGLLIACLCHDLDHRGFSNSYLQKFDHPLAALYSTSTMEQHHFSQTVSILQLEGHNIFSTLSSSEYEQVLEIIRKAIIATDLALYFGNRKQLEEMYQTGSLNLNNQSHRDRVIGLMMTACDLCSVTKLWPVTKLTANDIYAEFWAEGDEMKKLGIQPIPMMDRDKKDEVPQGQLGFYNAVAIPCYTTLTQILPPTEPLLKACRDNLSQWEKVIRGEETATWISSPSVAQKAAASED

Regarding `COc1ccc(C2=NNC(=O)C(C)C2)c2cc(C(C)C)nn12` (stereo not drawn) [Example 283], the IC50 in experiment [1] (setting [3]) was greater than 10 µmol/L; on PDE4Bcat it was 0.1 to 1 µmol/L; on PDE5Acat it was greater than 10 µmol/L; at PDE10A1, greater than 10 µmol/L.

One may read the inhibition in vivo as the drop in the measured response relative to a control, in per cent. With `CCc1cc2c(C3=NNC(=O)CC3)ccc(OC)n2n1` [Example 210, 6-(2-ethyl-7-methoxy-pyrazolo[1,5-a]pyridine-4-yl)-4,5-dihydro-3-(2H)-pyridazinone], the IC50 was greater than 10 µmol/L in experiment [1] (setting [3]), 1 to 10 µmol/L on PDE4Bcat, greater than 10 µmol/L on PDE5Acat and greater than 10 µmol/L on PDE10A1. The inhibition in vivo at 1 mg/kg in experiment [2] is no less than 90%.

For the molecule `COc1ccc(-c2cc(C)c(=O)[nH]n2)c2cc(C(C)C)nn12` [Example 278, 6-(7-methoxy-2-isopropyl-pyrazolo[1,5-a]pyridine-4-yl)-4-methyl-3-(2H)-pyridazinone], the IC50 in experiment [1] (setting [3]) was greater than 10 µmol/L; on PDE4Bcat it was 0.1 to 1 µmol/L; at PDE5Acat, greater than 10 µmol/L; on PDE10A1, greater than 10 µmol/L.

Turning to `CCc1cc2c(C3=NNC(=O)CC3C)cc(Cl)cn2n1` (single isomer, unassigned; (-)) [Example 314, (−)-6-(6-chloro-2-ethyl-pyrazolo[1,5-a]pyridine-4-yl)-5-methyl-4,5-dihydro-3-(2H)-pyridazinone], the IC50 in experiment [1] (setting [3]) is greater than 10 µmol/L; on PDE4Bcat it was 0.1 to 1 µmol/L; on PDE5Acat, greater than 10 µmol/L; at PDE10A1, greater than 10 µmol/L. This molecule also gave an inhibition in vivo at 0.1 mg/kg in experiment [2] of 80 to 90%.

For `CCc1cc2c(C3=NNC(=O)CC3)cc(Cl)cn2n1` [Example 202], the IC50 is greater than 10 µmol/L in experiment [1] (setting [3]), greater than 10 µmol/L at PDE4Bcat, greater than 10 µmol/L at PDE5Acat and 1 to 10 µmol/L on PDE10A1. The inhibition in vivo at 1 mg/kg in experiment [2] was no less than 90%.

Turning to `COc1ccc(C2=NN(Cc3ccccc3)C(=O)CC2)c2cc(C(C)C)nn12` [Example 284], the IC50 on PDE10A1 was in the range of 1 to 10 µmol/L.

For the molecule `COc1ccc(-c2ccc(=O)n(Cc3ccccc3)n2)c2c(C(=O)O)c(C(C)C)nn12` [Example 267, 2-benzyl-6-(3-carboxy-7-methoxy-2-isopropyl-pyrazolo[1,5-a]pyridine-4-yl)-3-(2H)-pyridazinone], the IC50 is greater than 10 µmol/L in experiment [1] (setting [3]), 1 to 10 µmol/L on PDE4Bcat, greater than 10 µmol/L on PDE5Acat and greater than 10 µmol/L on PDE10A1.

With `COc1ccc(C2=NN(Cc3cccnc3)C(=O)CC2)c2cc(C(C)C)nn12` [Example 285], the IC50 in experiment [1] (setting [3]) was greater than 10 µmol/L; on PDE4Bcat, 1 to 10 µmol/L; at PDE5Acat, greater than 10 µmol/L; on PDE10A1 it was 1 to 10 µmol/L.

For the molecule `CCc1cc2c(C3=NNC(=O)CC3C)ccc(OC(C)C)n2n1` (stereo not drawn) [Example 245, 6-(7-isopropoxy-2-ethyl-pyrazolo[1,5-a]pyridine-4-yl)-4,5-dihydro-5-methyl-3-(2H)-pyridazinone], the values for the IC50 (in experiment [1] (setting [3]); at PDE4Bcat) were 1 to 10 µmol/L and greater than 10 µmol/L, respectively. In experiment [2], this molecule yielded an inhibition in vivo at 0.1 mg/kg of no less than 90%.

As for `COc1ccc(C2=NNC(=O)CC2C)c2ccnn12` (stereo not drawn) [Example 214], the figures for the IC50 (in experiment [1] (setting [3]); on PDE4Bcat) were less than 1 µmol/L and 1 to 10 µmol/L, respectively. This molecule also came in with an inhibition in vivo at 0.1 mg/kg in experiment [2] of 80 to 90%.

`CCc1cc2c(C3=NNC(=O)CC3C)ccc(NCCO)n2n1` (stereo not drawn) [Example 247, 6-[2-ethyl-7-(2-hydroxyethylamino)-pyrazolo[1,5-a]pyridine-4-yl]-4,5-dihydro-5-methyl-3-(2H)-pyridazinone]: the IC50 (in experiment [1] (setting [3]); at PDE4Bcat) was 1 to 10 µmol/L throughout. The molecule also displayed an inhibition in vivo at 0.1 mg/kg in experiment [2] of 70 to 80%.

As for `COc1ccc(-c2ccc(=O)n(Cc3cccnc3)n2)c2cc(C(C)C)nn12` [Example 273], the IC50 in experiment [1] (setting [3]) is greater than 10 µmol/L; at PDE4Bcat it was 1 to 10 µmol/L; at PDE5Acat, greater than 10 µmol/L; on PDE10A1 it was 1 to 10 µmol/L.

For `COc1ccc(C2=NNC(=O)CC2C)c2cc(C3CC3)nn12` (stereo not drawn) [Example 218], the IC50 lay in the range of 1 to 10 µmol/L in experiment [1] (setting [3]) and 0.1 to 1 µmol/L on PDE4Bcat. This molecule returned an inhibition in vivo at 0.1 mg/kg in experiment [2] of no less than 90%.

As to `COc1ccc(C2=NNC(=O)CC2C)c2cc(C)nn12` (stereo not drawn) [Example 215], the IC50 lay in the range of 1 to 10 µmol/L in experiment [1] (setting [3]) and 0.1 to 1 µmol/L on PDE4Bcat. For the same molecule, the inhibition in vivo at 0.1 mg/kg in experiment [2] fell in the range of 80 to 90%.

For the molecule `COc1ccc(C2=NNC(=O)CC2C)c2cc(C(F)F)nn12` (stereo not drawn) [Example 222], the IC50 was 1 to 10 µmol/L in experiment [1] (setting [3]) and less than 1 µmol/L at PDE4Bcat. The same molecule gave an inhibition in vivo at 0.1 mg/kg in experiment [2] of 70 to 80%.

Turning to `COc1ccc(C2=NNC(=O)CC2C)c2cc(C(C)F)nn12` (stereo not drawn) [Example 240, 6-[2-(1-fluoroethyl)-7-methoxy-pyrazolo[1,5-a]pyridine-4-yl]-4,5-dihydro-5-methyl-3-(2H)-pyridazinone], the IC50 in experiment [1] (setting [3]) is 1 to 10 µmol/L; on PDE4Bcat, less than 1 µmol/L. Moreover, the inhibition in vivo at 0.1 mg/kg in experiment [2] was no less than 90%.

For the molecule `COc1ccc(C2=NNC(=O)CC2C)c2cc(C(C)C)nn12` (stereo not drawn) [Example 282], the IC50 in experiment [1] (setting [3]) was 1 to 10 µmol/L; on PDE4Bcat it was 0.1 to 1 µmol/L; on PDE5Acat, greater than 10 µmol/L; at PDE10A1, 1 to 10 µmol/L. The molecule further gave an inhibition in vivo at 1 mg/kg in experiment [2] of no less than 90%.

Consider `CCc1cc2c(C3=NNC(=O)CC3C)ccc(OC)n2n1` (single isomer, unassigned; (+)) [Example 315, (+)-6-(2-ethyl-7-methoxy-pyrazolo[1,5-a]pyridine-4-yl)-5-methyl-4,5-dihydro-3-(2H)-pyridazinone], for which the IC50 is 1 to 10 µmol/L in experiment [1] (IC50(μmol/L) PDE3, human recombinant PDE3Acat); 1 to 10 µmol/L on PDE4Bcat; greater than 10 µmol/L at PDE5Acat; 1 to 10 µmol/L on PDE10A1. Further, the inhibition in vivo at 0.1 mg/kg in experiment [2] is no less than 90%.

As for `COc1ccc(-c2ccc(=O)n(Cc3ccccc3)n2)c2cc(C(C)C)nn12` [Example 272], the IC50 at PDE10A1 was in the range of 0.1 to 1 µmol/L.

`COC(=O)c1c(C(C)C)nn2c(OC)ccc(-c3ccc(=O)n(Cc4ccccc4)n3)c12` [Example 266, 2-benzyl-6-(7-methoxy-3-methoxycarbonyl-2-isopropyl-pyrazolo[1,5-a]pyridine-4-yl)-3-(2H)-pyridazinone]: the IC50 was greater than 10 µmol/L in experiment [1] (setting [3]), 1 to 10 µmol/L on PDE4Bcat, greater than 10 µmol/L on PDE5Acat and greater than 10 µmol/L on PDE10A1.

Regarding `CCc1cc2c(C3=NN(Cc4cccnc4)C(=O)CC3C)cc(Cl)cn2n1` (stereo not drawn) [Example 312, 6-(6-chloro-2-ethyl-pyrazolo[1,5-a]pyridine-4-yl)-4,5-dihydro-5-methyl-2-(pyridine-3-ylmethyl)-3-(2H)-pyridazinone], the IC50 in experiment [1] (setting [3]) is greater than 10 µmol/L; on PDE4Bcat, 1 to 10 µmol/L; on PDE5Acat, greater than 10 µmol/L; at PDE10A1, greater than 10 µmol/L.

Take `CCc1cc2c(-c3ccc(=O)[nH]n3)ccc(OC)n2n1` [Example 306]: the IC50 in experiment [1] (setting [3]) was 1 to 10 µmol/L; at PDE4Bcat, 1 to 10 µmol/L; at PDE5Acat, greater than 10 µmol/L; at PDE10A1, greater than 10 µmol/L. This molecule also came in with an inhibition in vivo at 1 mg/kg in experiment [2] of no less than 90%.
